For the assay, the target named is T1, SIRT1 (Homo sapiens, UniProt Q96EB6).
T1 sequence (Q96EB6 1-747): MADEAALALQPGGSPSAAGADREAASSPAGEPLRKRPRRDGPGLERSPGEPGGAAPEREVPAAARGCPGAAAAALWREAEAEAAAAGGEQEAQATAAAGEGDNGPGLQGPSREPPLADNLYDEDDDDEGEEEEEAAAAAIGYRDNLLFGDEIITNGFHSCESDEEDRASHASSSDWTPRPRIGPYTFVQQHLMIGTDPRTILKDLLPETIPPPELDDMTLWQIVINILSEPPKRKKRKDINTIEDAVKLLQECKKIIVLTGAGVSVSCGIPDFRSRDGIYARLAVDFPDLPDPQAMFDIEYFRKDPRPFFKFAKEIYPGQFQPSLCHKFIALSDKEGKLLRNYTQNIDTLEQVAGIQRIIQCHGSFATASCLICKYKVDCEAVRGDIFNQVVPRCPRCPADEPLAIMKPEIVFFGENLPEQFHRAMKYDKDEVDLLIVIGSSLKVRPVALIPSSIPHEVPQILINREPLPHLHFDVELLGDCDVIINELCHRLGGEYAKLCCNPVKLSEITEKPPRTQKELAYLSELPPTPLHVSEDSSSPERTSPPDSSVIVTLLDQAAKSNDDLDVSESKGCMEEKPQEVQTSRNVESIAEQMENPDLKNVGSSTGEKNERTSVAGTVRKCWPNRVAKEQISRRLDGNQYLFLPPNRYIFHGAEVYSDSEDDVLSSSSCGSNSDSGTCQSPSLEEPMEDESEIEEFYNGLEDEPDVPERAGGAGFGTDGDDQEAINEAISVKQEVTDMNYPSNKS
As to the kind of experiment: Mass spectrometry based SIRT1 deacetylase activation assay. In kind it is biochemical. The following applies: for EC1.5 μM: 0.5 μM peptide substrate, 120 μM βNAD+, 10 nM SIRT1, 25 min, 25° C.; for Emax: 25 min, mass spectrometry assay, read-out: % Fold Act. (percent maximum fold activation). The source says: A mass spectrometry based assay was used to identify modulators of SIRT1 activity. The mass spectrometry based assay utilizes a peptide having 20 amino acid residues as follows: Ac-EE-K(biotin)-GQSTSSHSK(Ac)NleSTEG-K(5TMR)-EE-NH2 (SEQ ID NO: 1) wherein K(Ac) is an acetylated lysine residue and Nle is a norleucine. The peptide is labeled with the fluorophore 5TMR (excitation 540 nm/emission 580 nm) at the C-terminus. The sequence of the peptide substrate is based on p53 with several modifications. In addition, the methionine residue naturally present in the sequence was replaced with the norleucine because the methionine may be susceptible to oxidation during synthesis and purification.
The mass spectrometry assay is conducted as follows: 0.5 μM peptide substrate and 120 μM βNAD^+ is incubated with 10 nM SIRT1 for 25 minutes at 25° C. in a reaction buffer (50 mM Tris-acetate pH 8, 137 mM NaCl, 2.7 mM KCl, 1 mM MgCl2, 5 mM DTT, 0.05% BSA). Test compounds may be added to the reaction as described above. […] After the 25 minute incubation with SIRT1, 10 μL of 10% formic acid is added to stop the reaction. Reactions are sealed and frozen for later mass spec analysis. Determination of the mass of the substrate peptide allows for precise determination of the degree of acetylation (i.e. starting material) as compared to deacetylated peptide (product).
A control for inhibition of sirtuin activity is conducted by adding 1 μL of 500 mM nicotinamide as a negative control at the start of the reaction (e.g., permits determination of maximum sirtuin inhibition). A control for activation of sirtuin activity is conducted using 10 nM of sirtuin protein, with 1 μL of DMSO in place of compound, to determine the amount of deacetylation of the substrate at a given timepoint within the linear range of the assay. This timepoint is the same as that used for test compounds and, within the linear range, the endpoint represents a change in velocity.
For the above assay, SIRT1 protein was expressed and purified as follows. […] The protein was expressed by induction with 1 mM IPTG as an N-terminal His-tag fusion protein at 18° C. overnight and harvested at 30,000×g. Cells were lysed with lysozyme in lysis buffer (50 mM Tris-HCl, 2 mM Tris[2-carboxyethyl]phosphine (TCEP), 10 μM ZnCl2, 200 mM NaCl) and further treated with sonication for 10 min for complete lysis. The protein was purified over a Ni-NTA column (Amersham) and fractions containing pure protein were pooled, concentrated and run over a sizing column (Sephadex S200 26/60 global). The peak containing soluble protein was collected and run on an Ion-exchange column (MonoQ). Gradient elution (200 mM-500 mM NaCl) yielded pure protein. This protein was concentrated and dialyzed against dialysis buffer (20 mM Tris-HCl, 2 mM TCEP) overnight. The protein was aliquoted and frozen at −80° C. until further use.

Each structure is given as a SMILES string.

As for `O=C(Nc1cccc2c(=O)cc(-c3ccccc3C(F)F)oc12)c1cccc(CN2CCOCC2)n1` [Compound 339], the “EC1.5 μM” value was “A (EC1-5<1.0)” and the Emax is greater than 200%.
`O=C(Nc1cccc2c(=O)cc(-c3ccccc3C(F)F)oc12)c1cccc(OCC(O)CO)n1` (stereo not shown) [Compound 338]: the “EC1.5 μM” value is given as “A (EC1-5<1.0)” and the Emax is greater than 200%.
Take `O=C(Nc1cccc2c(=O)cc(-c3ccccc3)oc12)c1cscn1` [Compound 200]: the “EC1.5 μM” value is recorded as “C (EC1.5>25 μM)” and the Emax is less than 200%.
The like results for `O=C(Nc1ccccn1)c1cccc2c(=O)cc(-c3cccc(C(F)(F)F)c3)oc12` [Compound 207] were, in that order, “C (EC1.5>25 μM)” and less than 200%.
On to `O=C(Nc1cccc2c(=O)cc(-c3ccccc3C(F)(F)F)oc12)c1cccc(CN2CCOCC2)c1` [Compound 328], for which the “EC1.5 μM” value is “B (EC1.5 1-25 μM)” and the Emax was greater than 200%.
On the same counts, the results for `O=C(Nc1cccc2c(=O)cc(-c3cccc(N4CCOCC4)c3)oc12)c1ccccn1` [Compound 213] are “C (EC1.5>25 μM)” and less than 200%.
Regarding `O=C(Nc1cccc2c(=O)cc(-c3ccccc3C(F)(F)F)oc12)c1cccc(OCC(O)CO)n1` (stereo not shown) [Compound 318], the “EC1.5 μM” value was “A (EC1-5<1.0)” and the Emax was greater than 200%.
The like results for `O=C(Nc1cccc2c(=O)cc(-c3ccccc3F)oc12)c1cnccn1` [Compound 278] were, in that order, “C (EC1.5>25 μM)” and less than 200%.
Regarding `CS(=O)(=O)c1cccc(-c2cc(=O)c3cccc(C(=O)Nc4ccccn4)c3o2)c1` [Compound 221], the “EC1.5 μM” value is given as “C (EC1.5>25 μM)” and the Emax is less than 200%.
On to `Cc1ccccc1-c1cc(=O)c2cccc(NC(=O)c3cscn3)c2o1` [Compound 274], for which the “EC1.5 μM” value is reported as “C (EC1.5>25 μM)” and the Emax is less than 200%.
As to `CS(=O)(=O)c1cccc(-c2cc(=O)c3cccc(NC(=O)c4ccccn4)c3o2)c1` [Compound 218], the “EC1.5 μM” value is given as “B (EC1.5 1-25 μM)” and the Emax is less than 200%.
On the same counts, the results for `O=C(Nc1cccc2c(=O)cc(-c3ccccc3C(F)(F)F)oc12)c1ncccn1` [Compound 252] are “A (EC1-5<1.0)” and greater than 200%.
Consider `Cn1ccnc1C(=O)Nc1cccc2c(=O)cc(-c3ccccc3C(F)(F)F)oc12` [Compound 250], for which the “EC1.5 μM” value is listed as “A (EC1-5<1.0)” and the Emax is greater than 200%.
Turning to `O=C(Nc1cccc2c(=O)cc(-c3ccc(OC(F)(F)F)cc3)oc12)c1cnccn1` [Compound 233], the “EC1.5 μM” value was “C (EC1.5>25 μM)” and the Emax is less than 200%.
Take `O=C(Nc1cccc2c(=O)cc(-c3cnccc3C(F)(F)F)oc12)c1cscn1` [Compound 309]: the “EC1.5 μM” value was “B (EC1.5 1-25 μM)” and the Emax is greater than 200%.
Regarding `Cc1ccccc1-c1cc(=O)c2cccc(NC(=O)c3cnccn3)c2o1` [Compound 273, N-(4-oxo-2-o-tolyl-4H-chromen-8-yl)pyrazine-2-carboxamide], the “EC1.5 μM” value is listed as “A (EC1-5<1.0)” and the Emax is greater than 200%.
In the case of `Cc1cnc(NC(=O)c2cccc3c(=O)cc(-c4ccc(Br)cc4)oc23)s1` [Compound 223], the Emax was less than 200%.
Turning to `O=C(Nc1cccc2c(=O)cc(-c3cccc(C(F)(F)F)c3)oc12)c1cccnc1` [Compound 226], the “EC1.5 μM” value is “C (EC1.5>25 μM)” and the Emax was less than 200%.
On the same counts, the results for `O=C(Nc1cccc2c(=O)cc(-c3ccccc3F)oc12)c1cscn1` [Compound 279] are “C (EC1.5>25 μM)” and less than 200%.
With `Cc1cnc(NC(=O)c2cccc3c(=O)cc(-c4ccccc4OC(F)F)oc23)s1` [Compound 294], the “EC1.5 μM” value is “B (EC1.5 1-25 μM)” and the Emax is less than 200%.
On the same counts, the results for `O=C(Nc1cccc2c(=O)cc(-c3ccccc3Cl)oc12)c1cscn1` [Compound 281] are “A (EC1-5<1.0)” and greater than 200%.
`O=C(Nc1cccc2c(=O)cc(-c3ccccc3C(F)(F)F)oc12)c1cscn1` [Compound 227, N-(4-oxo-2-(2-(trifluoromethyl)phenyl)-4H-chromen-8-yl)thiazole-4-carboxamide]: the “EC1.5 μM” value is on record as “A (EC1-5<1.0)” and the Emax is greater than 200%.
For `CC(C)c1ccccc1-c1cc(=O)c2cccc(NC(=O)c3cnccn3)c2o1` [Compound 286], the “EC1.5 μM” value is on record as “A (EC1-5<1.0)” and the Emax is greater than 200%.
Regarding `O=C(Nc1cccc2c(=O)cc(-c3cccc(C(F)(F)F)c3)oc12)c1ccnc(OC[C@@H](O)CO)c1` [Compound 245], the “EC1.5 μM” value is on record as “C (EC1.5>25 μM)” and the Emax was less than 200%.
As to `O=C(Nc1cccc2c(=O)cc(-c3ccccc3C(F)(F)F)oc12)c1cccc(N2CCOCC2)n1` [Compound 322], the “EC1.5 μM” value is recorded as “A (EC1-5<1.0)” and the Emax is greater than 200%.
On to `Cc1cnc(NC(=O)c2cccc3c(=O)cc(-c4cccnc4C(F)(F)F)oc23)s1` [Compound 305, N-(5-methylthiazol-2-yl)-4-oxo-2-(2-(trifluoromethyl)pyridin-3-yl)-4H-chromene-8-carboxamide], for which the “EC1.5 μM” value was “C (EC1.5>25 μM)” and the Emax was less than 200%.
For `O=C(Nc1cccc2c(=O)cc(-c3ccccc3C(F)(F)F)oc12)c1cocn1` [Compound 272], the “EC1.5 μM” value is “B (EC1.5 1-25 μM)” and the Emax is greater than 200%.
As for `O=C(Nc1cccc2c(=O)cc(-c3ccccc3C(F)F)oc12)c1cnccn1` [Compound 282], the “EC1.5 μM” value is recorded as “A (EC1-5<1.0)” and the Emax was greater than 200%.
As for `O=C(Nc1cccc2c(=O)cc(-c3ccccc3Cl)oc12)c1cccc(N2CCCC2)n1` [Compound 325], the “EC1.5 μM” value was “A (EC1-5<1.0)” and the Emax is greater than 200%.
As for `O=C(Nc1cccc2c(=O)cc(-c3ccccc3Br)oc12)c1cscn1` [Compound 231], the Emax is greater than 200%.
For the compound `O=C(Nc1cccc2c(=O)cc(-c3ccccc3C(F)(F)F)oc12)c1ccncc1` [Compound 258], the “EC1.5 μM” value was “B (EC1.5 1-25 μM)” and the Emax is greater than 200%.
With `O=C(Nc1cccc2c(=O)cc(-c3c(F)cccc3F)oc12)c1cnccn1` [Compound 290], the “EC1.5 μM” value is on record as “C (EC1.5>25 μM)” and the Emax is less than 200%.
As to `O=C(Nc1cccc2c(=O)cc(-c3cccc(C(F)(F)F)c3)oc12)c1cccnc1OC[C@@H](O)CO` [Compound 246], the “EC1.5 μM” value is given as “B (EC1.5 1-25 μM)” and the Emax was less than 200%.
The like results for `O=C(Nc1cccc2c(=O)cc(-c3cccc(N4CCOCC4)c3)oc12)c1cnccn1` [Compound 214] were, in that order, “B (EC1.5 1-25 μM)” and less than 200%.
As to `O=C(Nc1cccc2c(=O)cc(-c3ccccc3C(F)(F)F)oc12)c1cccc(CN2CCCC2)n1` [Compound 320], the “EC1.5 μM” value is given as “A (EC1-5<1.0)” and the Emax is greater than 200%.
Regarding `O=C(Nc1cccc2c(=O)cc(-c3cccc(OC(F)(F)F)c3)oc12)c1cnccn1` [Compound 203], the “EC1.5 μM” value is listed as “B (EC1.5 1-25 μM)” and the Emax is less than 200%.

Values taken from patent US8987258B2 (priority 2008, dated 2015).
